Measured values from patent US11541122B2, “Glucose sensitive insulins and uses thereof” (Ziylo Limited, priority 2018, dated 2023).

Test: Glucose affinity of macrocycles by fluorescence titration
Assay type: binding
Details: pH 7.4, 10 mM phosphate buffer
Method: The optic properties (fluorescence) of the given macrocycle changes between the unbound state, and the glucose-bound state. Titrating the macrocycle with glucose in the relevant glucose concentration range, and measuring the changes in fluorescence of the system can thus give binding curves for binding to glucose, which can be used to determine the glucose binding constant, Ka (and the displacement constant, Kd).
All solutions were maintained at pH 7.4 using 10 mM Phosphate buffer solution. The titration was performed using a Horiba Scientific Duetta fluorescence spectrometer with an excitation wavelength of 310 nm and monitoring emission from 320-550 nm. The excitation and emission slit width/band widths were set to 5 nm. All points were acquired using a 0.5 second integration time and 5 accumulations.
2 mg of compound 6d (Mw=3540 g/mol) was dissolved in […] of ultrapure H2O (pH 7.4, 10 mM PB). The purity of Compound 6d was previously assayed by 1H NMR spectroscopy using a known concentration of DMF in D2O as an internal standard. The purity was calibrated at 80% (40 μM). This was then diluted by a four-fold to give a 10 μM solution of Compound 6d.
D-glucose (180.16 mg) was dissolved in 1 mL 10 mM PB and allowed to stand overnight to allow for equilibration of the a and 13 anomers. This was sequentially diluted to give a 20 mM stock solution of D-glucose. 250 μL of this solution was combined with 250 μL Compound 6d stock solution to give a 10 mM D-glucose/5 μM Compound 6d.
In a 3 mL cuvette, 1500 μL of Solution 1 was diluted with 1500 μL of 10 mM phosphate buffer to give a 5 μM solution. This was titrated with Solution 2. For each addition of titrant solution (Solution 2), the equivalent volume was removed from the cuvette prior to addition to keep the cell volume constant (3000 μL). Each addition was stirred for 1 minute then stirring stopped to allow 1 minute for the sample to equilibrate before acquisition. Additions (in μL): 0, 10, 10, 10, 10, 10, 20, 20, 50, 100, 100.

Kd (glucose), calculated as 1/Ka (D-glucose titration)	Calculated Ka (glucose binding constant, 1:1 binding model) (D-glucose titration, 5 μM macrocycle, excitation 310 nm)	Kd (measured similarly to compound 6d)	Structure (SMILES)
68 µM	14751.48 ± 637.3 M⁻¹		CCc1c2c(CC)c3c(CC)c1CNC(=O)Nc1ccc(C(=O)NC(CCC(=O)NC(CCC(=O)O)(CCC(=O)O)CCC(=O)O)(CCC(=O)NC(CCC(=O)O)(CCC(=O)O)CCC(=O)O)CCC(=O)NC(CCC(=O)O)(CCC(=O)O)CCC(=O)O)cc1NC(=O)NCc1c(CC)c(c(CC)c(c1CC)CNC(=O)Nc1cc(C(=O)NC(CCC(=O)NC(CCC(=O)O)(CCC(=O)O)CCC(=O)O)(CCC(=O)NC(CCC(=O)O)(CCC(=O)O)CCC(=O)O)CCC(=O)NC(CCC(=O)O)(CCC(=O)O)CCC(=O)O)ccc1NC(=O)NC3)CNC(=O)Nc1cc(C(=O)NCCOCCOCCOCCN=[N+]=[N-])ccc1NC(=O)NC2 [compound 6d]
		131 µM	CCc1c2c(CC)c3c(CC)c1CNC(=O)Nc1ccc(C(=O)NC(CCC(=O)O)(CCC(=O)O)CCC(=O)O)cc1NC(=O)NCc1c(CC)c(c(CC)c(c1CC)CNC(=O)Nc1cc(C(=O)NC(CCC(=O)O)(CCC(=O)O)CCC(=O)O)ccc1NC(=O)NC3)CNC(=O)Nc1cc(C(=O)NCCOCCOCCOCCOCCN=[N+]=[N-])ccc1NC(=O)NC2 [compound 24, G1 Macrocycle PEG5 Azide]
